Source: ChEMBL document CHEMBL1201862, “PubChem BioAssay data set” (2004)
The source made the active and inactive calls.

Tests used:
[1] = biological target: T1, Calpain-2 catalytic subunit (Sus scrofa, UniProt P43367); experiment: m-calpain protease blockers, concentration series – biochemical, fluorogenic peptide substrate, dose response (AID 1420); assay type: functional
T1 sequence (P43367 whole entry): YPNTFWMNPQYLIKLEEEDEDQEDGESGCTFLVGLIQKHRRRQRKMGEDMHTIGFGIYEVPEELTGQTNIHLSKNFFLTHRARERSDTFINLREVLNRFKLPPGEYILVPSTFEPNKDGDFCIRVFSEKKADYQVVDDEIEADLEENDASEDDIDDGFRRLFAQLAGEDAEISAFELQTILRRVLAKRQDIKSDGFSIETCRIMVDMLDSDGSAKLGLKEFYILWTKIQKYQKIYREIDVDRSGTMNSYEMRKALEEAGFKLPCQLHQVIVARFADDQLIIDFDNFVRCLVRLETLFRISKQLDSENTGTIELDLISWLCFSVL

[2] = biological target: T2, Rac GTPase-activating protein 1 (Homo sapiens, UniProt Q9H0H5); experiment: blockers of MgcRacGAP-driven Rac1 GTP hydrolysis – biochemical, ADP Hunter fluorescence, primary and confirmatory, confirmation (AID 624330); assay type: functional
T2 sequence (Q9H0H5 whole entry): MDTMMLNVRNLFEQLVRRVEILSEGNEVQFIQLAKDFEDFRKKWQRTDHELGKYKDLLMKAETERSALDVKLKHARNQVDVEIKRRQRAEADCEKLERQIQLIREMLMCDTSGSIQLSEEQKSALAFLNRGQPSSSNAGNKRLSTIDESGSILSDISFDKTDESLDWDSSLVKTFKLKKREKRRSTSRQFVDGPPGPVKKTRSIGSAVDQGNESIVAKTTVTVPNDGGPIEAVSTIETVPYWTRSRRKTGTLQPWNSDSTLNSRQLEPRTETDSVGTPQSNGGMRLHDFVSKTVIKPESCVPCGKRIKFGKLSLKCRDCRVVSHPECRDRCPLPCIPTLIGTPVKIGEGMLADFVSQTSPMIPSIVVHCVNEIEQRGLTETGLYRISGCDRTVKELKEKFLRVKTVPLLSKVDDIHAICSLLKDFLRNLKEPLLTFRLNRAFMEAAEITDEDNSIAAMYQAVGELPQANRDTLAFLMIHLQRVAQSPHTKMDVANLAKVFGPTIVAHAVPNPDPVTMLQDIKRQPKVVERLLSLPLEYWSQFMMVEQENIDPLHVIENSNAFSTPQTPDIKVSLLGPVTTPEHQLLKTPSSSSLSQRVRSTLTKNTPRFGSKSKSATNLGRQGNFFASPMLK

Paired box protein Pax-8 = Paired box protein Pax-8 (Homo sapiens, UniProt Q06710); experiment: PAX8 transcriptional activity inhibition in RMG-I – RMG-I cells, luciferase, cherry-pick, dose response (AID 687027); assay type: functional, cell-based;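 note: luciferase reporter driven by Pax8 target thyroperoxidase promoter measured by SteadyGlo luminescence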
[3] = reduction of Shn3 3'UTR-driven luciferase in osteoblasts – cell-based, Clone20 osteoblasts, firefly luciferase, cherry-picked, dose response (AID 624132); assay type: functional;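 note: firefly luciferase luminescence from reporter carrying the Shn3 3'UTR in osteoblasts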
[4] = loss of viability in HepG2 cells – cell-based, CellTiter-Glo, cherry-picked, cytotoxicity control for Shn3 inhibitor project, dose response (AID 624134); assay type: functional
[5] = non-specific 3'UTR reporter inhibition in Clone20-Shn3RL – cell-based, Renilla luciferase, cherry-picked, counter-screen for Shn3 inhibitor project, dose response (AID 624133); assay type: functional
[6] = biological target: Luciferin 4-monooxygenase (Photinus pyralis, UniProt P08659); experiment: inhibition of purified Photinus pyralis luciferase – biochemical, luminescence, dose response (AID 1891)
[7] = Luminescence Cell-Based Dose Confirmation HTS to Identify Inhibitors of Platelet Dense Granule Release. [Related pubchem assays: 1663 (Primary HTS), 1678 (Summary of Project)]; assay type: functional
BJ [8] = experiment: BJ-TERT fibroblast viability loss – cell-based, RAS-independent, luminescence, dose response (AID 1933); assay type: functional; settings: Homo sapiens
BJ [9] = experiment: cells; assay type: functional, cell-based; settings: Homo sapiens
BJ [10] = experiment: BJ-TERT-LT-ST fibroblast viability loss – cell-based, RAS-independent, luminescence, dose response (AID 1935); assay type: functional; settings: Homo sapiens;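 note: BJ fibroblasts immortalized with TERT plus LT and ST oncogenes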
[11] = DRD fibroblast viability loss – cell-based, non-viral oncogenic, luminescence, dose response (AID 1934); assay type: functional; settings: Homo sapiens
INS1 = experiment: INS-1E survival protection against cytokine death – cell-based, luminescence, retest, dose response (AID 449756); assay type: functional; settings: Rattus norvegicus;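 note: cell death triggered by IL-1 beta plus TNF-alpha plus IFN-gamma mixture; protective hits raise ATP signal compared with cytokine alone wells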
[12] = luciferase reporter signal suppression in cells – H4 neuroglioma cells, luminescence, dose response (AID 1990); assay type: functional, cell-based
[13] = Luminescence Cell-Based Dose Response HTS to Identify Inhibitors of 5'UTR Stem-Loop Driven Prion Protein mRNA Translation in H4 Neuroglioblastoma Cells. [Related pubchem assays: 1827 (Project Summary), 1813 (Primary HTS)]; assay type: functional
[14] = alpha-synuclein stem-loop luciferase translation blockers – H4 neuroglioma cells, luminescence, confirmation (AID 1988); assay type: functional, cell-based
[15] = Luminescence Cell-Based Dose Retest to Confirm Inhibitors of Cancer Stem Cells. [Related pubchem assays (depositor defined):AID2717, AID2721]; assay type: functional; settings: Homo sapiens
[16] = NIH-3T3 fibroblast cytotoxicity, dose response, cytotoxicity control, cell-based, fluorescence, Alamar Blue, secondary assay (AID 2327); assay type: functional;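 note: NIH-3T3 mouse fibroblasts cultured with fluconazole at 8 µg/mL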
[17] = fluconazole-exposed Candida albicans growth modulators – fluorescence, retest, confirmation (AID 2467); assay type: functional, cell-based
[18] = Trypanosoma cruzi growth suppression in host cells – NIH3T3 host cells, beta-gal luminescence, confirmation (AID 2044); assay type: functional, cell-based;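 note: intracellular parasites grown in NIH/3T3 mouse fibroblasts as host cells; luminescent beta-galactosidase reporter signal from transgenic T. cruzi replicating inside host cells; inhibitors lower the luminescence signal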
[19] = NIH3T3 cell viability loss – ATP luminescence, mouse fibroblasts, counter-screen, dose response (AID 2010); assay type: functional, cell-based;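 note: cells exposed to compound for about 90 hours before reading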

Chain of Paired box protein Pax-8 (Q06710 whole entry): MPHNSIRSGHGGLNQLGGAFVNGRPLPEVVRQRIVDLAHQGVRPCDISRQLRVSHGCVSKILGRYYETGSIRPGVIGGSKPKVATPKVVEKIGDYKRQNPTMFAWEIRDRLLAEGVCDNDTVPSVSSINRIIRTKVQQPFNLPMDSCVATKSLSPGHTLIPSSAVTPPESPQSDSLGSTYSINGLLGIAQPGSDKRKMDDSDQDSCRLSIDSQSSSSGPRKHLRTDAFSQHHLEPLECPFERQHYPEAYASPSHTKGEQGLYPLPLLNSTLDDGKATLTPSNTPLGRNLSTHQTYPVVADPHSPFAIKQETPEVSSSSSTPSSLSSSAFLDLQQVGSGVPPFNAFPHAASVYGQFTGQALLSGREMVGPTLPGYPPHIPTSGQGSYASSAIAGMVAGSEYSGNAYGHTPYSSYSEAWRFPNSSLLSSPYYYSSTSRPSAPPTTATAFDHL
Chain of Luciferin 4-monooxygenase (P08659 whole entry): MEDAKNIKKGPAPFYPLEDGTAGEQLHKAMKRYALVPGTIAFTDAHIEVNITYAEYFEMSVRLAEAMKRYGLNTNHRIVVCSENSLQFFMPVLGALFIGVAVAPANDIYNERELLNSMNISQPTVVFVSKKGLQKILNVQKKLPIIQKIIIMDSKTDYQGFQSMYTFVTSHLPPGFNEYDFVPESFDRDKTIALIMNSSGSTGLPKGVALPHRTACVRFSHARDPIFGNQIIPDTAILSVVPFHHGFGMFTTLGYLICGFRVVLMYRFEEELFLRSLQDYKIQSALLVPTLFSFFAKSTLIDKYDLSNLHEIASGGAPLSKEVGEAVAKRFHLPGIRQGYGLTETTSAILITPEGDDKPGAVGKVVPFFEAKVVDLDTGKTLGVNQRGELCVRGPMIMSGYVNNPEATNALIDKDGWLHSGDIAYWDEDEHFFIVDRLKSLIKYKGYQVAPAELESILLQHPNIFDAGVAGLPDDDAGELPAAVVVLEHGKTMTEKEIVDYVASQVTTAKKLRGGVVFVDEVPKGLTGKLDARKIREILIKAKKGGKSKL

O=[N+]([O-])c1ccc2c(c1)C(N1CCOCC1)/C(=C/COc1ccc(Cl)cc1Cl)O2 (stereo not drawn)
IC50 [1]: 5.41 µM (not active)

COC(=O)c1ccccc1NC(=S)NC(=O)COc1ccccc1
IC50 [1]: 6.37 µM (not active)

c1ccc(CC2CCN(Cc3ccccn3)CC2)cc1
IC50 [2]: 216 µM (active)

COc1cc(OC)cc(C(=O)N2CCN(Cc3ccccc3Br)CC2)c1
IC50 [2]: 325 µM (active)

CC1CCN(CCc2nc3cc(NS(=O)(=O)c4ccccc4)ccc3n2C)CC1
AC50 (Paired box protein Pax-8): 12.1 µM (active)

c1ccc(CCn2nnnc2CN2CCN(C3CCCC3)CC2)cc1
IC50 [1]: > 50 µM (not active)

O=C(C[C@H]1CC[C@@H]2[C@H](COC[C@@H](O)CN2Cc2ccc(F)cc2)O1)NCc1ccccc1Cl
AC50 (Paired box protein Pax-8): 41.2 µM (active)

Cc1onc(-c2ccccc2Cl)c1C(=O)N1CCC(Cc2ccccc2)CC1
AC50 [3]: 2.29 µM (active)
AC50 [4]: 46.3 µM (active)
AC50 [5]: 4.54 µM (active)

CC(=O)Nc1cccc(NC(=O)C(=O)Nc2ccc3c(c2)N(C(=O)C2CC2)CCC3)c1
EC50 [6]: 31 µM (active)
EC50 [7]: > 112 µM (not active)

O=C(CSc1ncc(C(F)(F)F)cc1Cl)N1CCN(S(=O)(=O)c2ccc(Cl)cc2)CC1
IC50 [1]: 4.37 µM (not active)

O=C(CNCc1cccs1)Nc1ccc(N2CCCCCC2)cc1
IC50 [2]: 107 µM (active)

CC(=O)c1ccc(N=C(S)N(Cc2ccccc2)C(C)C2CC2)cc1 (stereo not drawn)
IC50 [1]: 23.9 µM (not active)

CCN(CC)S(=O)(=O)c1cccc(NC(=O)CNc2cccc(S(=O)(=O)N3CCOCC3)c2)c1
AC50 [3]: 0.865 µM (active)
AC50 [4]: 1.08 µM (active)
AC50 [5]: 2.77 µM (active)

CC(Sc1ccccc1)C(=O)Nc1ccccc1C(=O)N1CCOCC1 (stereo not drawn)
EC50 [6]: > 112 µM (not active)
EC50 [7]: > 112 µM (not active)

N#Cc1ccsc1NC(=O)CCc1ccccc1
EC50 (BJ [8]): 15.7 µM (active)
EC50 (BJ [9]): 34.1 µM (active)
EC50 (BJ [10]): 18.1 µM (active)
EC50 [11]: 19.3 µM (active)

COc1ccc(C(=O)Nc2cccc(C)c2)cc1
EC50 [6]: 16.1 µM (active)
EC50 [7]: 7.08 µM (active)

CSc1nc(N)nc2c1ncn2CC(=O)N1CCN(Cc2c(C)cc(C)cc2C)CC1
AC50 (INS1): 1.98 µM (active)
AC50 [3]: 0.526 µM (active)
AC50 [4]: 33.6 µM (active)
AC50 [5]: 2.02 µM (active)

COc1cccc(NP(=O)(Oc2ccccc2)Oc2ccccc2)c1
EC50 [12]: > 120 µM (not active)
EC50 [13]: 59.4 µM (active)
EC50 [14]: > 120 µM (not active)
AC50 [15]: 0.935 µM (active)

Cn1c(=O)[nH]c(=O)c2[nH]c(N(Cc3ccccc3)Cc3ccccc3)nc21
IC50 [1]: > 50 µM (not active)

C[C@@H]1CCCCO[C@H](CN(C)Cc2ccc(C(F)(F)F)cc2)[C@@H](C)CN([C@@H](C)CO)C(=O)c2cc(NS(=O)(=O)c3cccs3)ccc2O1
AC50 (Paired box protein Pax-8): 7.62 µM (active)

CCNS(=O)(=O)c1ccc(NC(=O)c2cccnc2)cc1
EC50 [16]: > 160 µM (inactive)
EC50 [17]: > 38 µM (not active)
EC50 [6]: > 112 µM (not active)
EC50 [7]: > 112 µM (not active)

COc1cc(/C=N/NC(=O)C(C)Nc2nnc(O)nc2O)ccc1O (stereo not drawn)
IC50 [2]: 57.2 µM (active)

COc1ccc(/C=N/Nc2nn3cnnc3c3ccccc23)cc1
IC50 [1]: 5.99 µM (not active)

CCOC(=O)C1=C(CSc2nc3ccccc3s2)NC(=O)NC1c1ccc(OC)cc1 (stereo not drawn)
AC50 [15]: 5.99 µM (active)

CCOC(=O)C1=C(CNCCc2ccc(Cl)cc2)NC(=O)NC1c1ccc2c(c1)OCO2 (stereo not drawn)
EC50 [18]: 13.3 µM (active)
IC50 [1]: > 50 µM (not active)
EC50 [19]: > 60 µM (not active)

CC(C)NC(=S)N/N=C/c1ccc2c(c1)OCCO2
IC50 [1]: > 50 µM (not active)

COc1ccc(NC(=O)CN(c2ccccc2)S(=O)(=O)c2ccccc2)c(OC)c1
IC50 [1]: 49.3 µM (not active)

COc1cc2c(cc1OC)-c1cc(Nc3ccc(C)cc3)nc(=O)n1CC2
EC50 [6]: > 112 µM (not active)
EC50 [7]: 3.46 µM (active)

O=C(CNS(=O)(=O)c1ccccc1)N/N=C/c1ccc(O)cc1
IC50 [2]: 60 µM (active)

Cc1ccccc1OCCn1cc(C(=S)N2CCCC2)c2ccccc21
AC50 [3]: 24.3 µM (active)
AC50 [4]: > 70 µM (inactive)
AC50 [5]: 20.9 µM (active)

C=CCn1c(SCC(=O)c2[nH]c(C)c(C(=O)OC)c2C)nc2scc(-c3ccc(OC)c(OC)c3)c2c1=O
EC50 [12]: 6.33 µM (active)
EC50 [13]: 8.16 µM (active)
EC50 [14]: 5.89 µM (active)
AC50 [3]: 2.01 µM (active)
AC50 [4]: 41.2 µM (active)
AC50 [5]: 24.8 µM (active)

Cn1c(NC(=O)Cc2cccs2)cc(=O)n(C)c1=O
EC50 [6]: > 112 µM (not active)
EC50 [7]: > 112 µM (not active)

C[C@@H]1CN([C@H](C)CO)S(=O)(=O)c2ccc(C#Cc3ccncc3)cc2O[C@H]1CN(C)C(=O)Nc1ccc2c(c1)OCO2
AC50 (Paired box protein Pax-8): 3.68 µM (active)

COc1cc(/C=C(/NC(=O)c2ccccc2)C(=O)Nc2ccc(O)cc2)c([N+](=O)[O-])cc1OC
IC50 [2]: 55.7 µM (active)

CCCNc1nc2c(c(=O)n(C)c(=O)n2C)n1Cc1cccc(C)c1
AC50 [3]: 1.91 µM (active)
AC50 [4]: > 70 µM (inactive)
AC50 [5]: 8.85 µM (active)

CCN(/C=N/C1=NN(c2cccc(C(F)(F)F)c2)CC1)CC
IC50 [2]: 32.9 µM (active)

COCCCNC(=O)Cn1c(=O)n(CCCCCC(=O)Nc2ccccc2)c(=O)c2sccc21
EC50 [6]: > 112 µM (not active)
EC50 [7]: > 112 µM (not active)

Cc1ccc(NS(=O)(=O)c2cc([N+](=O)[O-])ccc2NN=C(S)Nc2cc(C)ccc2C)c(C)c1
AC50 [15]: 1.12 µM (active)
AC50 (INS1): 4.42 µM (active)

O=C(NCc1cccc(Cl)c1)c1ccc2c(c1)SC1=NS(=O)(=O)CCN12
IC50 [1]: 14.8 µM (not active)

CC(C)(C)NC(=O)c1cc(C(C)(C)C)c(O)c(C(C)(C)C)c1
IC50 [1]: 3.38 µM (not active)

CC1N(O)C(c2ccc(Cl)cc2Cl)N(O)C1(C)C (stereo not drawn)
EC50 [6]: > 112 µM (not active)
EC50 [7]: > 112 µM (not active)

COC(=O)c1cc2n(n1)CCN(Cc1ccc(F)cc1)C2=O
EC50 [6]: > 112 µM (not active)
EC50 [7]: > 112 µM (not active)

C[C@@H]1CN([C@H](C)CO)C(=O)c2cc(NS(=O)(=O)c3ccc(F)cc3)ccc2O[C@@H]1CN(C)Cc1ccc(C(F)(F)F)cc1
AC50 (Paired box protein Pax-8): 22.2 µM (active)

C=CCCc1ccc(C#N)c(SCc2c(C(=O)OCC)c3cc(OC(C)=O)c(Br)cc3n2C)n1
AC50 (INS1): 1.14 µM (active)
AC50 [4]: 9.37 µM (active)
AC50 [5]: 2.75 µM (active)

CCCCCCSc1ccc(-c2nc3ccccn3c2NCCCC)cc1
AC50 [15]: 4.4 µM (active)

O=C1Nc2ccccc2C1=Nc1ccc2[nH]c3ccccc3c2c1
IC50 [2]: 16.6 µM (active)

CC(C)CC(C(=O)OCC(=O)c1c(N)n(C)c(=O)n(C)c1=O)N1C(=O)C2CC=CCC2C1=O (stereo not drawn)
IC50 [1]: 12.9 µM (not active)

Cc1csc(=O)n1CC(=O)OC(C)C(=O)Nc1ccc(N(C)C)cc1 (stereo not drawn)
IC50 [2]: 51.4 µM (active)

Cc1ccc(CCc2nnc(SCC(=O)Nc3cccc(Cl)c3)n2-c2ccccc2)o1
AC50 (Paired box protein Pax-8): 25.4 µM (active)

COc1cc(/C=C/C(=O)OCC(=O)Nc2c(C)n(C)n(-c3ccccc3)c2=O)ccc1O
IC50 [2]: 63.9 µM (active)
